How the values were obtained:
[1] = system: mouse colon cancer cell line C26; test: Tumor treatment effect in C26-transplanted BALB/c mice; assay type: in vivo; details: for antitumor effect (tumor volume): i.v., days 3, 7, 10, 14
Protocol: Mouse colon cancer cell line C26-transplanted BALB/c mice (6-week-old) were divided into 8 groups of 5 each (groups 1 to 8), and each group was intravenously administered 200 μL each of CD-enclosing crosslinked vesicles (0.5 U/mL) prepared by the procedure described above, 5-FC, 5-FU or PBS, at the timing shown in Table 9 below. The 5-FC and 5-FU were prepared for 10 mg/kg (body weight) or 80 mg/kg (body weight), based on the mouse body weight. […] The tumor volume was measured by measuring the long diameter and short diameter of the tumor using a caliper, and the calculation was performed by the following formula. V=(a^2×b)/2 V: Tumor volume, a: long diameter, b: short diameter

C26 cells = test: Cytotoxic effect (Cell Counting Kit-8); assay type: cell-based, murine; details: 48 and 72 hours, gemcitabine concentration 0.1 μg/mL or matched carrier amount
Protocol: (§1) Also, the cytotoxic effects of each of the samples (sample Nos. 1 to 6) at 48 hours and 72 hours after the start of culturing were evaluated by the following procedure. Specifically, using a Cell Counting Kit-8 (product of Dojindo) according to the manufacturer's instructions, reagent was added to each well and culturing was conducted for 1 hour, after which the viable cell count was measured. The results after 48 hours of culturing are shown in FIG. 34(a), and the results after 72 hours of culturing are shown in FIG. 34(b).
In addition, using C26 cells (a murine colon adenocarcinoma cell line) instead of A549 cells, the cell uptake property and cytotoxic effect were evaluated by the same procedure described above, except for the points mentioned below. […]

[2] = system: human pulmonary carcinoma cell line A549; test: Tumor treatment effect in A549-transplanted BALB/c nude mice; assay type: in vivo, mouse; details: 200 μL i.v.; gemcitabine 5 mg/kg or matched carrier amount; 28 days; vs PBS group
Protocol: Human pulmonary carcinoma cell line A549-transplanted BALB/c nude mice (7-week-old, for each sample) were divided into 7 groups of 5 each, among which 6 of the groups were intravenously administered samples 1 to 6 (Groups 1 to 6), respectively. The dose of each sample was 200 μL, and the concentration of each sample of the GEM-adsorbed sulfonated MSN-encapsulating vesicles (sample No. 1), the GEM-adsorbed sulfonated MSN (sample No. 3) and the gemcitabine alone (sample No. 6) was adjusted for a gemcitabine concentration of 5 mg/kg of mouse body weight, while the amounts of sulfonated MSN-encapsulating vesicles (sample No. 2) and vacant vesicles (sample No. 5) added were adjusted to be the same as the amount of GEM-adsorbed sulfonated MSN-encapsulating vesicles (sample No. 1) in terms of MSN-encapsulating vesicles, and the amount of sulfonated MSN (sample No. 4) added was adjusted to be the same as the amount of GEM-adsorbed sulfonated MSN (sample No. 3) in terms of MSN. To the remaining group there was administered 200 μL of PBS (Group 7). The tumor volumes were measured for 28 days after administration. Tumor volume was measured by measuring the long diameter and short diameter of the tumor using a caliper, and calculation was performed by the following formula. V=(a^2×b)/2 V: Tumor volume, a: long diameter, b: short diameter

A549 cells = test: Cytotoxic effect (Cell Counting Kit-8); assay type: cell-based, human; details: 48 and 72 hours, gemcitabine concentration 0.5 μg/mL or matched carrier amount
Protocol: Specifically, the GEM-adsorbed sulfonated MSN-encapsulating vesicles obtained by the procedure described above (sample No. 1), the sulfonated MSN-encapsulating vesicles used as material for the foregoing (Example II-3A) (sample No. 2) and the vacant vesicles used as material for the foregoing (Example II-1) (sample No. 5) were each labeled with Cy3 (labeling 25% of the number of anionic polymers), and then A549 cells were added to each well of a plate having a density of 2.2×10^3 cells/well in RPMI-1640 medium, prior to culturing at 37° C. The amount of GEM-adsorbed sulfonated MSN-encapsulating vesicles (sample No. 1) added was an amount for a gemcitabine concentration of 0.5 μg/mL in the medium, the amounts of sulfonated MSN-encapsulating vesicles (sample No. 2) and vacant vesicles (sample No. 5) added were adjusted to be the same as the amount of GEM-adsorbed sulfonated MSN-encapsulating vesicles (sample No. 1) in terms of MSN-encapsulating vesicles. […]
as §1, with “The results after 48 hours of culturing are shown in FIG. 34(a), and the results after 72 hours of culturing are shown in FIG. 34(b).” left out

[3] = Viscosity of FITC-Dex solutions (rotating rheometer); assay type: physicochemical
Protocol: The viscosity was measured using a rotating rheometer (Physica MCR302, product of Anton Paar).

[4] = dose of 10 mg/kg (5-FC or 5-FU)
[5] = dose of 80 mg/kg (5-FC or 5-FU)

Row | viscosity ([3]; concentration 10 mg/mL) | viscosity ([3]; concentration 4 mg/mL) | Compound | antitumor effect (tumor volume) [1, 4] | antitumor effect (tumor volume) [1, 5] | other results
1 |  |  | Nc1nc(=O)[nH]cc1F [Example 5-FC, 5-fluorocytosine] | no significant antitumor effect or toxicity | no significant antitumor effect or toxicity | 
2 |  |  | O=c1[nH]cc(F)c(=O)[nH]1 [Example 5-FU, 5-fluorouracil] | very weak antitumor effect | antitumor effect that shrunk the tumor | individuals died by the 28th day after administration ([1]; dose of 10 mg/kg, 5 mice per group): 3; survival ([1]; dose of 80 mg/kg, 5 mice per group, up to 28 days): all of the individuals died by the 17th day
3 |  |  | Nc1ccn([C@@H]2O[C@H](CO)[C@@H](O)C2(F)F)c(=O)n1 [gemcitabine alone, Gemcitabine] |  |  | cytotoxic effect (viable cell count) (C26 cells): powerful cytotoxic effect; antitumor effect (tumor volume) [2]: no significant antitumor effect was seen; cytotoxic effect (viable cell count) (A549 cells): powerful cytotoxic effect
4 | 0.0097 Pa·s |  | fluorescein isothiocyanate-dextran [FITC-Dex 4000] |  |  | 
5 | 0.1271 Pa·s | 0.0504 Pa·s | fluorescein isothiocyanate-dextran [FITC-Dex 10000] |  |  | 
6 | 0.1377 Pa·s | 0.0513 Pa·s | fluorescein isothiocyanate-dextran [FITC-Dex 40000] |  |  | viscosity ([3]; concentration 50 mg/mL): 0.5481 Pa·s

Reference: patent US10322092B2, “Substance-containing vesicle, and production method therefor” (JAPAN SCIENCE AND TECHNOLOGY AGENCY, priority 2013, dated 2019)
